Experimental data taken from ChEMBL document CHEMBL2029277, “Discovery of XL413, a potent and selective CDC7 inhibitor” (Bioorg Med Chem Lett, 2012).

Experiments:
[1] = target: T1, Cell division cycle 7-related protein kinase (Homo sapiens, UniProt O00311); experiment: Inhibition of N-terminus Myc-tagged human CDC7 expressed in Escherichia coli by chemiluminescence assay in presence of ATP
[2] = target: Casein kinase II alpha/beta (Homo sapiens, UniProt P68400); experiment: Inhibition of human tertrameric CK2alphabeta holoenzyme using casein as substrate after 1 to 2 hrs by chemiluminescence assay in presence of 2 uM ATP; type: protein-complex assay
[3] = target: Serine/threonine-protein kinase pim-1 (Homo sapiens, UniProt P11309); experiment: Inhibition of N-terminus His-tagged human PIM1 expressed in Escherichia coli using AKRRRLSA as substrate after 1 to 2 hrs by chemiluminescence assay
[4] = target: T1, Cell division cycle 7-related protein kinase; experiment: Inhibition of CDC7 in human MDA-MB-231T cells assessed as inhibition of MCM2 phosphorylation at Ser53 after 4 hrs; type: cell-based
[5] = Plasma concentration in mouse at 100 mg/kg, po measured after 1 hr; type: ADME, organism-based; design: dose 100 mg/kg, route oral
[6] = Plasma concentration in mouse at 100 mg/kg, po measured after 4 hrs; type: ADME, organism-based; design: dose 100 mg/kg, route oral

T1 sequence (O00311 whole entry): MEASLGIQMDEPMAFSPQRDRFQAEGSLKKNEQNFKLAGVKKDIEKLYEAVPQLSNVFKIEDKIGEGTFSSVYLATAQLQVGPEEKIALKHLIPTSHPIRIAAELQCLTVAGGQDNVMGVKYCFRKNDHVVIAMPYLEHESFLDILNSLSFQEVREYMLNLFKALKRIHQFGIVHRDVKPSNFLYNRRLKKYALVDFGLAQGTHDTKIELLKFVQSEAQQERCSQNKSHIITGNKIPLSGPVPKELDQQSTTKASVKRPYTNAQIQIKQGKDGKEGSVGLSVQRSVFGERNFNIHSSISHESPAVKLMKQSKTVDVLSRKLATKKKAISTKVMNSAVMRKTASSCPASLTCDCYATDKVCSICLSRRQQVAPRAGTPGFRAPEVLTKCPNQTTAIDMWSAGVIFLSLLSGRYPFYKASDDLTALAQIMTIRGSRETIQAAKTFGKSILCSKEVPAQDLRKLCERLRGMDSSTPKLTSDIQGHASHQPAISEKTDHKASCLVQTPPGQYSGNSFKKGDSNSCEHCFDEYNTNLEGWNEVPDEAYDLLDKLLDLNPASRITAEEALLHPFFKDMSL
Sequence of Casein kinase II alpha/beta (P67870 whole entry): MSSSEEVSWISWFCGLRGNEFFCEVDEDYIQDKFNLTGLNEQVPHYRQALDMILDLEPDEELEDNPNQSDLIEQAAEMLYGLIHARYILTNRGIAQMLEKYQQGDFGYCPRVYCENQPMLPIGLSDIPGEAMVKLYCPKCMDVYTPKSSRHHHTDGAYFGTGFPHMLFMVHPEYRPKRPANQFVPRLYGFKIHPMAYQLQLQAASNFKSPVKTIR
Sequence of Casein kinase II alpha/beta (P68400 whole entry): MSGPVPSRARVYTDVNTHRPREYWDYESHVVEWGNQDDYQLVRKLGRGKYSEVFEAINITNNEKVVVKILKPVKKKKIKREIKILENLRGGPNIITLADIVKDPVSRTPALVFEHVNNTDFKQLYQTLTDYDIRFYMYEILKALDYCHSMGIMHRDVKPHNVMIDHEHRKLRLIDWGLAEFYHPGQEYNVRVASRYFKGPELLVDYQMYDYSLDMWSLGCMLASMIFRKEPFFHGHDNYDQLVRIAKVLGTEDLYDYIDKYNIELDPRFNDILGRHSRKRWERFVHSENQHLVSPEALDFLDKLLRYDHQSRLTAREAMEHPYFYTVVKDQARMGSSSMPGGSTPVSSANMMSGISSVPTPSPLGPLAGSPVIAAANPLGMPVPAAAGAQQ
Sequence of Serine/threonine-protein kinase pim-1 (P11309 whole entry): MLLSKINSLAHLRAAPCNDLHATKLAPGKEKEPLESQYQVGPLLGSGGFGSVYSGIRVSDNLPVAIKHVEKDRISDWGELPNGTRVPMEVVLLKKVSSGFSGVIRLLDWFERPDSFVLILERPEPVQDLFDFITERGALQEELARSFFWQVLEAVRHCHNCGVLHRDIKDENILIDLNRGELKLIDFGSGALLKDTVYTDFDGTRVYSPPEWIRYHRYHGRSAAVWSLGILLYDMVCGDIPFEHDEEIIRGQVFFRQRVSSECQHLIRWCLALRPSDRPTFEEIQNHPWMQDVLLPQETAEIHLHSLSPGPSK

Row | Structure (SMILES) | IC50 [1] [nM] | IC50 [2] [nM] | IC50 [3] [nM] | IC50 [4] [nM] | concentration at 1 h [5] [µM] | concentration at 4 h [6] [µM]
1 | CN1CCC[C@H]1c1nc2c(oc3ccc(Br)cc32)c(=O)[nH]1 | 7.3 | 63 | 11 | 802 |  | 
2 | CC(N)c1nc2c(oc3ccc(Br)cc32)c(=O)[nH]1 (racemic) | 7.9 | 757 | 72 | 874 |  | 
3 | O=c1[nH]c(CN2CC[C@H](O)C2)nc2c1oc1cc(O)c(Br)cc12 | 1000 |  |  |  | 1.4 | 0.15

Second part, the compound after the results:

Row | IC50 [1] [nM] | IC50 [2] [nM] | IC50 [3] [nM] | IC50 [4] [nM] | concentration at 1 h [5] [µM] | concentration at 4 h [6] [µM] | Structure (SMILES)
4 | 3.9 | 733 | 102 | 292 |  |  | COc1ccc2oc3c(=O)[nH]c([C@@H]4C[C@@H](F)CN4)nc3c2c1
5 | 11 | 3620 | 11 | 566 |  |  | O=c1[nH]c([C@@H]2C[C@H](F)CN2)nc2c1oc1ccc(Br)cc12
6 | 4.8 | 91 | 31 | 75 | 195 | 71 | O=c1[nH]c([C@@H]2CCCN2)nc2c1oc1ccc(Br)cc12
